Laboratory results from patent publication EP0406760B1, “Plant growth regulating composition” (SUMITOMO CHEMICAL COMPANY, LIMITED, priority 1989, dated 1991).

Assays:
antocyanin production = experiment: Inhibitory effect on antocyanin production in red cabbage seedlings in water culture; assay type: in vivo, red cabbase (var.: Ruby Ball); details: 5 days at 25°C under 8000 luxes, in contrast to the non-treated plot
Description: Water culture (10 ml) containing the compound (I) was charged in a reaction vessel, and on adsorbed cotton laid down therein 15 seeds of red cabbase (var.: Ruby Ball) were sowed and cultivated for 5 days at 25°C under 8000 luxes. The shoot of the […] cabbage was cut and antocyanin was extracted with 1N hydrochloric acid (5 ml). The amount of antocyanin thus extracted was calculated by meauring an absorption at 535 nm on a spectrophotometer. The concentration of the compound (I) which inhibits 50 % the antocyanin production was calculated in contrast to the non-treated plot. Still, neither abnormality in the vegetative part nor suppression of growth of the test plant due to Compound (I) could be observed.

scopolamine production = experiment: Promoting effect on scopolamine production in hairy root culture; assay type: cell-based, Duboisia leichhardtii; details: per culture (50 ml), 28 days after addition
Description: Hairy root of Duboisia leichhardtii are known to produce scopolamine once vegetative parts were infected with Agrobacterium rhizogenes (Plant Science, 59, 191 - 201 (1989)). One hairy root of Duboisia (var.: DL47-1) (wet content, 100 mg) was inoculated in a liquid HF-3 medium (50 ml) and subjected to rotation-culture with a speed of 85 rotations/min at 25°C in the dark place. After twenty-one days, 1000-fold dilution of a dimethylsulfoxide solution of Compound (I) was added to the culture medium to make its final concentration constant. Twenty-eight days thereafter, scopolamine in the hairy roots and the medium was respectively extracted and its amount was measured on a high performance liquid chromatography (HPLC).

wheat = experiment: Inhibitory effect on lignin production in wheat and softening of wheat culm; assay type: in vivo, Wheat (var.: Nohrin No. 61); parameters: key: -: unchanged; +++: prominently softened; details: wettable powder applied to the soil, hardness of culms determined manually versus untreated
Excerpt: Wheat seeds (var.: Nohrin No. 61) were sowed in small pots (6 seeds/pot) and cultivated in a greenhouse for about one month. When differentiation of culm was recognized, a designated amount of the compound in the form of a wettable powder according to Formulation Example 2 was applied to the soil, and cultivation was continued until blooming. Hardness of wheat culms in contrast to those of untreated was manually determined and evaluated into four indices ranging from (-: unchanged) to (+++: prominently softened).

[1] = tested on: chlorogenic acid production; experiment: Inhibitory effect on chlorogenic acid production in sunflower; assay type: in vivo, Sunflowers (var.: Russian Sunflower); details: 1000 ppm wettable powder sprayed over the flowers; seed endosperm, HPLC; non-treated 3.4
Description: Sunflowers (var.: Russian Sunflower) were grown in a greenhouse for two weeks and transplanted in Wagner's pots (1/5000 are) and cultivated for 2 months outdoors. When 5 to 10 days elapsed after blooming, a designated amount of the compound in the form of a wettable powder according to Formulation Example 2 was sprayed over the flowers, from which seeds were harvested. Endosperm of the seeds were crushed and subjected to boiling-extraction with ethanol and filtration. The filtrate was diluted with 0.05 M aqueous H₃PO₄ and further filtered. The amount of chlorogenic acid was quantitatively analysed by HPLC (column: Nucleosil C18 (8 mm x 25 cm); eluent: methanol : 0.05 M H₃PO₄ (35 : 75)).

morningglory = experiment: Inhibitory effect on antocyanin production in morningglory (soil or foliar treatment); assay type: in vivo, morningglory (var.: Scarlet Ohara); details: soil and foliar spray treatments
Description: Seeds of morningglory (var.: Scarlet Ohara) was sowed in small pots (diameter, 8 cm) and cultivated in a greenhouse. At the time of development of cotyledons (9 days after sowing), short-day treatment was performed for 1 week to induce flowering. Five days prior to flowering (length of buds being about 1 to 2 cm), a designated amount of the compound (I) was applied to the soil or sprayed to the foliage of the plant. Cultivation was continued, and color of petals was visually observed in contrast to the non-treated plot and evaluated into five indices ranging from (-: no influence) to (++++: completely whitened).

CCOC(=O)C(=N)Nc1cccc(F)c1C [Compound No. 26, ethyl N-(3-fluoro-2-methylphenyl)amidinoformate]
Concentration of 50 % inhibition of antocyanin production (antocyanin production): 0.06 ppm

Cc1c(F)cccc1NC(=N)C(=O)O [Compound No. 1, N-(3-fluoro-2-methylphenyl)amidinoformic acid]
Amount of scopolamine (mg) Medium (scopolamine production; final concentration 0.1 mg/l): 2.7 mg | Amount of scopolamine (mg) Root (scopolamine production; final concentration 0.1 mg/l): 2.1 mg | Amount of scopolamine (mg) Total (scopolamine production; final concentration 0.1 mg/l): 4.8 mg | Amount of scopolamine (mg) Medium (scopolamine production; final concentration 1.0 mg/l): 3.4 mg | Amount of scopolamine (mg) Root (scopolamine production; final concentration 1.0 mg/l): 2.4 mg | Amount of scopolamine (mg) Total (scopolamine production; final concentration 1.0 mg/l): 5.8 mg | Softening index (wheat; 4 mg/pot): +++ | Content of chlorogenic acid [1]: 1.3 µg/mg fr.wt | Concentration of 50 % inhibition of antocyanin production (antocyanin production): 0.04 ppm

Cc1ccc(Cl)cc1NC(=N)C(=O)O [Compound No. 4, N-(5-chloro-2-methylphenyl)amidinoformic acid]
Concentration of 50 % inhibition of antocyanin production (antocyanin production): 0.1 ppm

Cc1c(Cl)cccc1NC(=N)C(=O)[O-].[K+] [Compound No. 31, potassium salt of N-(3-chloro-2-methylphenyl)amidinoformic acid]
Concentration of 50 % inhibition of antocyanin production (antocyanin production): 0.05 ppm

Cc1c(Cl)cccc1NC(=N)C(=O)O [Compound No. 3, N-(3-chloro-2-methylphenyl)amidinoformic acid]
Softening index (wheat; 2 mg/pot): +++ | Content of chlorogenic acid [1]: 1.0 µg/mg fr.wt | Concentration of 50 % inhibition of antocyanin production (antocyanin production): 0.02 ppm

NOC(Cc1ccccc1)C(=O)O (stereo not shown) [AOPP, 2-aminoxy-3-phenylpropionic acid, reference compound]
phytotoxicity / adverse effect in the treated plants (morningglory): severe phytotoxicity (withering of leaves) | Concentration of 50 % inhibition of antocyanin production (antocyanin production): 4 ppm

Cc1cc(F)ccc1NC(=N)C(=O)O [Compound No. 5, N-(4-fluoro-2-methylphenyl)amidinoformic acid]
Concentration of 50 % inhibition of antocyanin production (antocyanin production): 0.1 ppm

Cc1c(Cl)cccc1NC(=N)C(=O)[O-].[Na+] [Compound No. 30, sodium salt of N-(3-chloro-2-methylphenyl)amidinoformic acid]
Concentration of 50 % inhibition of antocyanin production (antocyanin production): 0.05 ppm
